From patent US5789447A, “Nitric oxide releasing compounds as protective agents in ischemia reperfusion injury” (priority 1995, dated 1998)

Experiments:
rat mesenteric venules = test: Venular diameter, RBC velocity and wall shear rate after ischemia reperfusion; assay type: in vivo; conditions: 100 μM in superfusate; for RBC velocity / Venular diameter / Wall Shear Rate: 30 min after reperfusion
Method: (§1) Male Sprague-Dawley rats weighing 200-250 g apiece were maintained on a purified laboratory diet and fasted for 24 hours prior to each experiment. The animals were initially anesthetized with pentobarbital (65 mg/kg body weight) and then a tracheotomy was performed to facilitate breathing during subsequent experimentation. The right carotid artery was cannulated and system arterial pressure was measured with a Statham P23A pressure transducer (Oxnard, Calif.) connected to the carotid artery cannula. Systemic blood pressure and heart rate were continuously recorder with a Grass physiologic recorded (Grass Instruments).
(§2) Rats were placed in a supine position on an adjustable plexiglass microscope stage and the mesentery was prepared for microscopic observation as described previously (Asako et al., Gastroenterology, 103, 146-152 (1992); Kurose et al., Circ. Res., in press (1993)). Briefly, the mesentery was draped over a non-fluorescent coverslip that allowed for observation of a 2 cm^2 segment of tissue. The exposed bowel wall was covered with Saran Wrap (Dow Chemical Co.) and the mesentery was superfused with bicarbonate-buffered saline (pH 7.4, 37° C.) that was bubbled with a mixture of 5% CO2 and […].
(§3) An inverted microscope (TMD-25, Diaphoto, Nikon, Tokyo, Japan) with a 40x objective lens (Fluor, Nikon) was used to observe the mesenteric microcirculation. The mesentery was transilluminated with a 12 V-100 W direct current-stabilized light source. A video camera (VK-C150, Hitachi, Ibaragi, Japan) mounted on the microscope projected the image onto a color monitor (PVM-2030, Sony, Tokyo, Japan) and the images were recorded using a videocassette record (NV8950, Panasonic, Tokyo, Japan). A video time-date generator (WJ810, Panasonic) projected the time, date and stopwatch function onto the monitor.
(§4) Single unbranched venules with diameters ranging between 25 and 35 μm and length greater than 150 μm were selected for study. Venular diameter (DV) was measured either on- or off-line using a video caliper (Microcirculation Research Institute, Texas A&M University, College Station, Tex.). Red blood cell centerline velocity (VRBC) was measured in venules using an optical Dopper velocimeter (Microcirculation Research Institute, Texas A&M University, College Station, Tex.). The velocimeter was calibrated against a rotating glass disk coated with red blood cells. Venular blood flow was calculated from the product of mean red blood cell velocity (Vmean =centerline velocity/1.6; Davis, Microvasc. Res., 34, 223-230 (1987)) and microvascular cross-sectional area, assuming cylindrical geometry. Wall shear rate (γ) was calculated based on the Newtonian definition γ=8(Vmean /D).
After all parameters measured on-line were in a steady state, images from the mesenteric preparation were recorded on videotape for 10 min. […] The mesentery was made ischemic for zero (sham ischemia) or 20 min. After the ischemic period, the ligation was gently removed. In some experiments, either sodium nitroprusside (SNP, 100 μM, Sigma Chemical), spermine-NO (SpNO, 100 μM), SIN-1 (100 μM), spermine (SP, 100 μM, Sigma Chemical), or NG-nitro-L-arginine methyl ester (L-NAME, 100 μM, Sigma Chemical) was added to the superfusate and the same protocol was employed. Spermine-NO and SIN-1, which are NO donors, were obtained from the National Institutes of Health, Bethesda, Md. […]

mesenteric venules = test: Albumin leakage across mesenteric venules after ischemia reperfusion; assay type: in vivo, rat; conditions: 100 μM, FIG. 4C; for effect on ischemia reperfusion induced albumin leakage: in words
Method: as §1, §2, §3
as §4, with “The velocimeter was calibrated against a rotating glass disk coated with red blood cells.” left out
After all parameters measured on-line were in a steady state, images from the mesenteric preparation were recorded on videotape for 10 min. […]

mast cells = test: Degranulation of microvascular mast cells after ischemia reperfusion; assay type: in vivo, rat; conditions: 20 min ischemia, 30 min reperfusion; 100 μM; FIG. 7
Method: as §1, §2
(§5) An inverted microscope (TMD-25, Diaphoto, Nikon, Tokyo, Japan) with a 40x objective lens (Fluor, Nikon) was used to observe the mesenteric microcirculation. […] A video camera (VK-C150, Hitachi, Ibaragi, Japan) mounted on the microscope projected the image onto a color monitor (PVM-2030, Sony, Tokyo, Japan) and the images were recorded using a videocassette record (NV8950, Panasonic, Tokyo, Japan). […]
as §4, with “The velocimeter was calibrated against a rotating glass disk coated with red blood cells.” left out
The number of adherent leukocytes was determined off-line during playback of videotape images. […] Adherent cells were expressed as the number per 100 μm length of venule. The number of emigrated leukocytes was also determined off-line during playback of videotape images. […] Leukocyte emigration was expressed as the number per field of view surrounding the venule. […]

leukocytes = test: Leukocyte adherence and emigration after ischemia reperfusion (mesenteric venules); assay type: in vivo, rat; conditions: 20 min ischemia, 100 μM; for change in leukocyte adherence: FIG. 4A; for effect on emigrated leukocytes: 30 min reperfusion, in words
Method: as §1, §2, §3, §4
The number of adherent leukocytes was determined off-line during playback of videotape images. A leukocyte was considered to be adherent to venular endothelium if it remained stationary for a period equal to or greater than 30 seconds (Granger et al., Am. J. Physiol., 257, G683-G688 (1989)). Adherent cells were expressed as the number per 100 μm length of venule. The number of emigrated leukocytes was also determined off-line during playback of videotape images. Any interstitial leukocytes present in the mesentery at the onset of the experiment were subtracted from the total number of leukocytes that accumulated during the course of the experiment. Leukocyte emigration was expressed as the number per field of view surrounding the venule. Platelet-leukocyte aggregates, which were visible within postcapillary venules, were quantitated and expressed as the number of aggregates crossing a fixed point within the venule over a 5 min period. Mast cells in the microvascular beds of the rat mesenteries were visualized by using 0.1% toluidine blue. The number of normal and degranulated mast cells was determined and the percentage of degranulated mast cells was calculated.

intestinal mucosa = test: Intestinal blood to lumen 51Cr-EDTA clearance (mucosal permeability) in cat small intestine transplant; assay type: in vivo, cats
microvasculature = test: Capillary pressure and vascular resistance in cat small intestine transplant; assay type: in vivo, cats; conditions: FIG. 13
[1] = system: platelet-leukocyte aggregates; test: Platelet-leukocyte aggregates after ischemia reperfusion; assay type: in vivo, rat; conditions: 20 min ischemia, 30 min reperfusion; 100 μM; FIG. 6
Method: as §1, with “Instruments). […]” for “Instruments).”
as §5
Single unbranched venules with diameters ranging between 25 and 35 μm and length greater than 150 μm were selected for study. Venular diameter (DV) was measured either on- or off-line using a video caliper (Microcirculation Research Institute, Texas A&M University, College Station, Tex.). […] Wall shear rate (γ) was calculated based on the Newtonian definition γ=8(Vmean /D). […]

small intestine = test: Water absorption in cat small intestine transplant; assay type: in vivo, cats; conditions: at 90 and 120 min; 0.5 mmol; FIG. 10
XO [2] = biological target: T1, XO (Bos taurus, UniProt P80457); test: XO activity by uric acid production at 305 nm; assay type: biochemical; conditions: 1 mM, preincubated with HX/XO
T1 sequence (P80457 whole entry): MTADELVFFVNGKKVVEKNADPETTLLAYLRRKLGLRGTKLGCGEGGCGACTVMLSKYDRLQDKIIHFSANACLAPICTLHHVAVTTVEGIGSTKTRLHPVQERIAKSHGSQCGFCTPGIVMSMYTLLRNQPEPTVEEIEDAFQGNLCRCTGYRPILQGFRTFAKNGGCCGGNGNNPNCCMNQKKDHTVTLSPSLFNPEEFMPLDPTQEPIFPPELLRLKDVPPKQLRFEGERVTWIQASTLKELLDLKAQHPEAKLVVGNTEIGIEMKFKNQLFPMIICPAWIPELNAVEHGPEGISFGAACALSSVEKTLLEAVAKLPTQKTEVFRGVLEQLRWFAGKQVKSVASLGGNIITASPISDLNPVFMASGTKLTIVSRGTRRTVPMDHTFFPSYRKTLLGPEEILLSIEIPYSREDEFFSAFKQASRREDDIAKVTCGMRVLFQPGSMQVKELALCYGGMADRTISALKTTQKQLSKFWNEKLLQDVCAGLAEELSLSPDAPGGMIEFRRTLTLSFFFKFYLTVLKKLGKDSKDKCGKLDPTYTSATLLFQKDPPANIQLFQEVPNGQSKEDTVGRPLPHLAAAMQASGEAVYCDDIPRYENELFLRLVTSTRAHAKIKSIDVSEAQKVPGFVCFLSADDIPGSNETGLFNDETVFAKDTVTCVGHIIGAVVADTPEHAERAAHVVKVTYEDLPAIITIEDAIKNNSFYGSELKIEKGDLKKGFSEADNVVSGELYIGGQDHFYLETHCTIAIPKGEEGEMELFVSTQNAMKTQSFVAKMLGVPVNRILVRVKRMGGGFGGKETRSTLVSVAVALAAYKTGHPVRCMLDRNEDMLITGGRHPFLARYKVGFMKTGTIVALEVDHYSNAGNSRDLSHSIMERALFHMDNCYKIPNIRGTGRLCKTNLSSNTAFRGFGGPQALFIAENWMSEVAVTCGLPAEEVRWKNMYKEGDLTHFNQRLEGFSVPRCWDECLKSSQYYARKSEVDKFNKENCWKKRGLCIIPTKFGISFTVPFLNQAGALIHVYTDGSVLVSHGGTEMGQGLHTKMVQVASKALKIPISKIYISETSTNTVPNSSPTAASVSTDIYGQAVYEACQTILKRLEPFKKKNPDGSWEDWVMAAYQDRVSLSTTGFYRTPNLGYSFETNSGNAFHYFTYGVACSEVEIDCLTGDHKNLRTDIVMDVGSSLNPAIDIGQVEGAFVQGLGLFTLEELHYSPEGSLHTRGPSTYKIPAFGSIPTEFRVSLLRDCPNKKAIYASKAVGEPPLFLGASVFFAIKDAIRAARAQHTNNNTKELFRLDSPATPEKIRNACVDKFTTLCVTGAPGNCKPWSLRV
Method: (§6) The activity of XO was monitored in the absence and presence of 1 mM DEA/NO by two different assays. Superoxide-induced reduction of ferricytochrome c to ferrocytochrome c was monitored spectrophotometrically at 550 nm (Fridovich, Handbook of Method for Oxygen Radical Research, pages 213-215 (1985)). The reaction was carried out in a 1 ml volume in aerated phosphate buffer (pH 7.8, 50 mM) containing 50 μM DETAPAC. HX was maintained at 2.5 mM and ferricytochrome c at 20 μM. The reactions were initiated with the addition of XO (final concentration of 0.2 units/ml). The activity of XO in the absence and presence of 1 mM DEA/NO was directly monitored by measuring the production of uric acid spectrophotometrically at 305 nm for 10 min under the same conditions but in the absence of ferricytochrome c. All enzymatic assays and chemical reactions were done at 37° C.

[3] = system: Chinese hamster V79 lung fibroblasts; test: V79 clonogenic survival, hypoxanthine/xanthine oxidase (HX/XO) cytotoxicity; conditions: decomposition products of DEA/NO, 1 mM
Method: Chinese hamster V79 lung fibroblasts were cultured in F12 medium supplemented with 10% fetal calf serum and antibiotics. Cell survival was assessed by clonogenic assay with 85-95% plating efficiency. Stock cultures of exponentially growing cells were trypsinized, rinsed, and plated (7×10^5 cells/dish) into a number of 100 cm^2 petri dishes and incubated 16 hr at 37° C. prior to experimental protocols.
It has been shown that exposure of V79 cells to hydrogen peroxide results in dose-dependent cytotoxicity (Mitchell et al., supra).
HX and XO were purchased from Boehringer Co. (Indianapolis, Ind.). Nitrite, diethylamine, sulfinamide, diethylenetriaminepentaacetic acid (DETAPAC) and N-(1-naphthyl)ethylenediaminedihydrogenchloride (NEDD) were purchased from Aldrich (Milwaukee, Wis.). Cytosine-β-D-arabinofuranoside and ferricytochrome c were purchased from Sigma (St. Louis, Mo.). DEA/NO and SPER/NO were synthesized as previously described (Maragos et al., (1991), supra).
Exponentially growing cultures of Chinese hamster V79 fibroblasts were exposed to either HX/XO (final concentration of HX was 0.5 mM; 0.08 units/ml XO were used) for various amounts of time (FIG. 1A) or to various concentrations of hydrogen peroxide for one hour (FIG. 1B). […] Additionally, 1 mM DEA/NO was added to medium in the absence of cells, incubated at 37° C. for 1 hr or 16 hrs, and then added just prior to the addition of hydrogen peroxide to evaluate the effects of DEA/NO which had released NO. After treatment, cell monolayers were rinsed twice with phosphate-buffered saline (PBS), trypsinized, counted and plated in triplicate for macroscopic colony formation. Each dose determination was plated in triplicate and experiments were repeated a minimum of two times. Plates were incubated for 7 days, after which colonies were fixed with methanol/acetic acid (3:1), stained with crystal violet, and counted. Colonies containing more than 50 cells were scored.

[4] = system: Chinese hamster V79 lung fibroblasts; test: V79 clonogenic survival, hydrogen peroxide cytotoxicity; assay type: cell-based; conditions: 1 mM; for effect on hydrogen peroxide cytotoxicity: FIG. 2B; for protection from hydrogen peroxide cytotoxicity: decomposition products of DEA/NO, FIG. 1B
Description: Colonies containing more than 50 cells were scored.

XO [5] = biological target: T1, XO; test: XO activity by superoxide-induced reduction of ferricytochrome c; assay type: biochemical; conditions: 1 mM, preincubated with HX/XO
Method: as §6

[6] = system: Chinese hamster V79 lung fibroblasts; conditions: Mitchell et al.; cited from earlier work

In the case of `COC(=O)[C@@H](N)CCCNC(=N)N[N+](=O)[O-]` [L-NAME, NG-nitro-L-arginine methyl ester], the RBC velocity (rat mesenteric venules) is reported as 1.84 ± 0.09 mm/sec, the Venular diameter (rat mesenteric venules) is reported as 29.2 ± 1.5 μm and the “Wall Shear Rate” value (rat mesenteric venules) is reported as 316 ± 10 L/s. For the same molecule, the “effect on ischemia reperfusion induced albumin leakage” value (mesenteric venules) was “no effect”, the “degranulation of microvascular mast cells” value (“degranulation” below) (mast cells) was “had no effect” and the “change in leukocyte adherence” value (leukocytes; 10 and 30 min reperfusion) was “no significant changes”. For the same molecule, the “effect on emigrated leukocytes” value (leukocytes; FIG. 4B) was “no effect”.

With `[NH-]c1c[n+](N2CCOCC2)no1` [SIN-1] the “reversal of decrease in RBC velocity after reperfusion” value (rat mesenteric venules; in words) was “reversed the decreases”, the “reversal of decrease in wall shear rate after reperfusion” value (rat mesenteric venules; in words) was “reversed the decreases” and the RBC velocity (rat mesenteric venules) was 2.64 ± 0.23 mm/sec. For the same molecule, the Venular diameter (rat mesenteric venules) was 29.0 ± 1.1 μm, the “Wall Shear Rate” value (rat mesenteric venules) was 457 ± 38 L/s and the “attenuation of albumin leakage” value (mesenteric venules; 10 min and 30 min after reperfusion) was 60-71%. The “degranulation” value (mast cells) was “significantly inhibited”, the “reduction of number of emigrated leukocytes” value (leukocytes; 10 and 30 min reperfusion, FIG. 4B) was 68-75% and the “mucosal permeability (51Cr-EDTA clearance)” value (intestinal mucosa; 6-hr hypothermic ischemia, 120 min reperfusion, FIG. 9) was “decreased”. The 51Cr-EDTA clearance (intestinal mucosa; at 60 and 90 min, 0.5 mmol luminal perfusate) was “statistically significant decrease”, the capillary pressure (microvasculature) was “No significant changes” and the platelet-leukocyte aggregate formation [1] was “reduced”. The water absorption (small intestine) was “significantly increased”.

In the case of `NCCCNCCCCNCCCN` [SP, spermine], the RBC velocity (rat mesenteric venules) is reported as 2.32 ± 0.19 mm/sec, the Venular diameter (rat mesenteric venules) is reported as 29.8 ± 1.4 μm and the “Wall Shear Rate” value (rat mesenteric venules) is reported as 391 ± 28 L/s. The “effect on ischemia reperfusion induced albumin leakage” value (mesenteric venules) was “no effect”, the “degranulation” value (mast cells) was “had no effect” and the “change in leukocyte adherence” value (leukocytes; 10 and 30 min reperfusion) was “no significant changes”. The “effect on emigrated leukocytes” value (leukocytes; FIG. 4B) was “no effect”.

With `CCNCC` [diethylamine] the “inhibition of XO activity, uric acid production” value (XO [2]) was “did not inhibit the activity of XO”, the “protection from HX/XO-induced cytotoxicity” value [3] was “did not protect” and the “effect on hydrogen peroxide cytotoxicity” value [4] was “had no effect on hydrogen peroxide cytotoxicity”. The “protection from hydrogen peroxide cytotoxicity” value [4] was “did not protect” and the “inhibition of XO activity, production of superoxide (cytochrome c reduction)” value (XO [5]) was “did not inhibit the activity of XO”.

In the case of `O=NO` [nitrite], the “inhibition of XO activity, uric acid production” value (XO [2]) is reported as “did not inhibit the activity of XO”, the “protection from HX/XO-induced cytotoxicity” value [3] is reported as “did not protect” and the “effect on hydrogen peroxide cytotoxicity” value [4] is reported as “potentiated hydrogen peroxide cytotoxicity”. For the same molecule, the “protection from hydrogen peroxide cytotoxicity” value [4] was “did not protect” and the “inhibition of XO activity, production of superoxide (cytochrome c reduction)” value (XO [5]) was “did not inhibit the activity of XO”.

In the case of superoxide dismutase, the “HX/XO induced cytotoxicity with added enzyme” value [6] is listed as “not treated”.

B1: catalase: catalase (protein, UniProt P04040 2-527, looked up)
Catalase: ADSRDPASDQMQHWKEQRAAQKADVLTTGAGNPVGDKLNVITVGPRGPLLVQDVVFTDEMAHFDRERIPERVVHAKGAGAFGYFEVTHDITKYSKAKVFEHIGKKTPIAVRFSTVAGESGSADTVRDPRGFAVKFYTEDGNWDLVGNNTPIFFIRDPILFPSFIHSQKRNPQTHLKDPDMVWDFWSLRPESLHQVSFLFSDRGIPDGHRHMNGYGSHTFKLVNANGEAVYCKFHYKTDQGIKNLSVEDAARLSQEDPDYGIRDLFNAIATGKYPSWTFYIQVMTFNQAETFPFNPFDLTKVWPHKDYPLIPVGKLVLNRNPVNYFAEVEQIAFDPSNMPPGIEASPDKMLQGRLFAYPDTHRHRLGPNYLHIPVNCPYRARVANYQRDGPMCMQDNQGGAPNYYPNSFGAPEQQPSALEHSIQYSGEVRRFNTANDDNVTQVRAFYVNVLNEEQRKRLCENIAGHLKDAQIFIQKKAVKNFTEVHPDYGSHIQALLDKYNAEKPKNAIHTFVQSGSHLAAREKANL
For B1, the “HX/XO induced cytotoxicity with added enzyme” value [6] is listed as “treated the cytotoxicity”.
